US12662458B2, “Solid forms of a compound” (Denali Therapeutics Inc., priority 2020, dated 2026)
≈ marks a conversion by molar mass, not a printed value.

Key:
[1] = Plasma PK in monkeys, nanosuspension; type: in vivo; details: nanosuspension in deionized water, single oral 25 mg/kg, cynomolgus monkeys
Method: Non-naïve male cynomolgus monkeys were used in this study with at least a 7-day washout period prior to dosing Animals were administered a nanosuspension of Form C as a single oral administration at 25 mg/kg. The nanosuspension was prepared by suspending nano-milled Form C in deionized water (5 mg/mL) to obtain an opaque homogenous suspension. Blood samples were collected at 0.25, 0.5, 1, 2, 4, 8, 24, 48, and 72 hours post-dose. Concentrations of Compound I in plasma samples were determined by LC/MS/MS.
A separate study was performed for a nanosuspension of Form A.

[2] = Solid form stability on storage; type: physicochemical
Method: To evaluate the solid form stability, Forms A and C were stored under 25° C./60% RH (open), 40° C./75% RH (open), and 60° C. for up to 4 weeks. Samples were analyzed by XRPD, TGA, DSC, and HPLC purity.

[3] = Plasma PK in monkeys, powder in capsule; type: in vivo; details: micronized (d90 5), single oral 15 mg/kg, cynomolgus monkeys
Method: Non-naïve male cynomolgus monkeys were used in this study with at least a 7-day washout period prior to dosing Animals were administered micronized Form A, unmicronized Form A, or micronized Form C powder in capsule by single oral administration at 15 mg/kg. The capsules were prepared according to the animals' body weights on dosing day. Blood samples were collected at 0.25, 0.5, 1, 2, 4, 8, 24, 48, and 72 hours post-dose.

[4] = Dynamic vapor sorption (hygroscopicity); type: physicochemical; details: DVS
Method: DVS analysis was carried out using a Surface Measurement System DVS Intrinsic analyzer. The instrument was calibrated with standard weights. Approximately 15-20 mg of sample was loaded into a pan for analysis. The sample was analyzed at 25° C. in 10% relative humidity (RH) steps from 0 to 95% RH (adsorption cycle) and from 95 to 0% RH (desorption cycle). The movement from one step to the next occurred either after satisfying the equilibrium criterion of 0.002% weight change (dm/dt) or, if the equilibrium criterion was not met, after ten hours.

[5] = Biorelevant media solubility of Forms A and C; type: physicochemical; details: for Solubility / Final XRPD: 37° C.
Method: Biorelevant media solubility of Forms A and C were studied in water, SGF, FaSSIF, and FeSSIF at 37° C. 10-20 mg of Form A or C was weighed into 2-3 mL glass vials and media was added to achieve a solids loading of ˜5 mg/mL. Each slurry was magnetically agitated at 750-1000 rpm at 37° C., filtered via centrifugation, and the supernatant was analyzed by HPLC to determine solubility. In all cases, there was no polymorphic form change observed by XRPD analysis of the filtered solids.

[6] = Plasma PK in rats, nanosuspension; type: in vivo; details: nanosuspension in deionized water, single oral 25 mg/kg, Wistar Han rats
Method: Wistar Han rats were administered a nanosuspension of Form A or Form C as a single oral administration at 25 mg/kg. The nanosuspensions were prepared by suspending nano-milled Form A or Form C in deionized water (2.5 mg/mL) to obtain opaque homogenous suspensions. Blood samples were collected at 0.25, 0.5, 1, 2, 4, 8, 24, 48, and 72 hours post-dose. Concentrations of Compound I in plasma samples were determined by LC/MS/MS.

For `O=C(COc1ccc(Cl)cc1)NC12CC(c3nnc([C@H]4C[C@@H](OC(F)(F)F)C4)o3)(C1)C2` (single isomer, unassigned) [Form C, 2-(4-chlorophenoxy)-N-[3-[5-[cis-3-(trifluoromethoxy)cyclobutyl]-1,3,4-oxadiazol-2-yl]-1-bicyclo[1.1.1]pentanyl]acetamide], the AUC0-24 h [1] was 367 ± 99 μM-hr, the Cmax [1] was 21.7 ± 4.2 µM and the Tmax [1] was 8 h. For the same molecule, the DSC endotherm ([2]; 25° C./60% RH (open), 2 week) was 133.7 °C, the HPLC purity ([2]; 25° C./60% RH (open), 2 week) was 99.7% and the “TGA loss (%, to 150° C.)” value ([2]; 25° C./60% RH (open), 2 week) was 0.4%. The XRPD ([2]; 25° C./60% RH (open), 2 week) was “Form C”, the DSC endotherm ([2]; 25° C./60% RH (open), 4 week) was 133.3 °C and the HPLC purity ([2]; 25° C./60% RH (open), 4 week) was 99.7%. For the same molecule, the “TGA loss (%, to 150° C.)” value ([2]; 25° C./60% RH (open), 4 week) was 0.3%, the XRPD ([2]; 25° C./60% RH (open), 4 week) was “Form C” and the “solid form stability (form change, weight gain, purity changes)” value ([2]; 25° C./60% RH (open), 40° C./75% RH (open), 60° C., up to 4 weeks) was “No form change, weight gain, or purity changes”. For the same molecule, the DSC endotherm ([2]; 40° C./75% RH (open), 2 week) was 133.6 °C, the HPLC purity ([2]; 40° C./75% RH (open), 2 week) was 99.7% and the “TGA loss (%, to 150° C.)” value ([2]; 40° C./75% RH (open), 2 week) was 0.2%. The XRPD ([2]; 40° C./75% RH (open), 2 week) was “Form C”, the DSC endotherm ([2]; 40° C./75% RH (open), 4 week) was 133.3 °C and the HPLC purity ([2]; 40° C./75% RH (open), 4 week) was 99.8%. The “TGA loss (%, to 150° C.)” value ([2]; 40° C./75% RH (open), 4 week) was 0.2%, the XRPD ([2]; 40° C./75% RH (open), 4 week) was “Form C” and the DSC endotherm ([2]; 60° C. (closed), 2 week) was 133.6 °C. The HPLC purity ([2]; 60° C. (closed), 2 week) was 99.8%, the “TGA loss (%, to 150° C.)” value ([2]; 60° C. (closed), 2 week) was 0.3% and the XRPD ([2]; 60° C. (closed), 2 week) was “Form C”. For the same molecule, the DSC endotherm ([2]; 60° C. (closed), 4 week) was 133.0 °C, the HPLC purity ([2]; 60° C. (closed), 4 week) was 99.8% and the “TGA loss (%, to 150° C.)” value ([2]; 60° C. (closed), 4 week) was 0.2%. The XRPD ([2]; 60° C. (closed), 4 week) was “Form C”, the DSC endotherm ([2]; Initial) was 133.1 °C and the HPLC purity ([2]; Initial) was 99.8%. The “TGA loss (%, to 150° C.)” value ([2]; Initial) was 0.1%, the XRPD ([2]; Initial) was “Form C” and the AUC0-24 h [3] was 117 ± 39 μM-hr. The Cmax [3] was 7.6 ± 3.4 µM, the Tmax [3] was 4 h and the Hygroscopicity [4] was “Non-hygroscopic”. For the same molecule, the “weight change / form change after exposure to humidity” value [4] was “no weight change and no polymorphic change”, the Solubility ([5]; FaSSIF) was 9.65 µg/mL (≈ 21.1 µM) and the Solubility ([5]; FeSSIF) was 16.14 µg/mL (≈ 35.3 µM). The Solubility ([5]; SGF) was 0.56 µg/mL (≈ 1.22 µM), the Solubility ([5]; Water) was 1.02 µg/mL (≈ 2.23 µM) and the “Final XRPD” value ([5]; filtered solids after slurry in FaSSIF) was “Form C”. For the same molecule, the “Final XRPD” value ([5]; filtered solids after slurry in FeSSIF) was “Form C”, the “Final XRPD” value ([5]; filtered solids after slurry in SGF) was “Form C” and the “Final XRPD” value ([5]; filtered solids after slurry in Water) was “Form C”. For the same molecule, the aqueous solubility ([5]; listed as Compound I Form C) was “about 1.02 micrograms/mL”, the Tmax [6] was 8 h and the AUC0-48 h ([6]; 25 mg/kg) was 1658 ± 211 μM-hr. For the same molecule, the Cmax ([6]; 25 mg/kg) was 101 ± 10 µM.
